From BindingDB's records for doi:10.1016/0922-4106(94)90227-5 (Novo Nordisk, 1994)

Columns and labels:
[1] = target: Glutamate receptor ionotropic, kainate 1 (Rattus norvegicus, UniProt P22756)
[2] = target: Metabotropic glutamate receptor 1 (Rattus norvegicus, UniProt P23385)
[3] = target: Metabotropic glutamate receptor 4 (Rattus norvegicus, UniProt P31423)
[4] = target: Glutamate receptor 3 (Rattus norvegicus, UniProt P19492)
[5] = target: Metabotropic glutamate receptor 2 (Homo sapiens, UniProt Q14416)
[6] = target: Glutamate receptor ionotropic, NMDA 1 (Rattus norvegicus, UniProt P35439)

Measured: Ki

Chain of Metabotropic glutamate receptor 1 (P23385 whole entry): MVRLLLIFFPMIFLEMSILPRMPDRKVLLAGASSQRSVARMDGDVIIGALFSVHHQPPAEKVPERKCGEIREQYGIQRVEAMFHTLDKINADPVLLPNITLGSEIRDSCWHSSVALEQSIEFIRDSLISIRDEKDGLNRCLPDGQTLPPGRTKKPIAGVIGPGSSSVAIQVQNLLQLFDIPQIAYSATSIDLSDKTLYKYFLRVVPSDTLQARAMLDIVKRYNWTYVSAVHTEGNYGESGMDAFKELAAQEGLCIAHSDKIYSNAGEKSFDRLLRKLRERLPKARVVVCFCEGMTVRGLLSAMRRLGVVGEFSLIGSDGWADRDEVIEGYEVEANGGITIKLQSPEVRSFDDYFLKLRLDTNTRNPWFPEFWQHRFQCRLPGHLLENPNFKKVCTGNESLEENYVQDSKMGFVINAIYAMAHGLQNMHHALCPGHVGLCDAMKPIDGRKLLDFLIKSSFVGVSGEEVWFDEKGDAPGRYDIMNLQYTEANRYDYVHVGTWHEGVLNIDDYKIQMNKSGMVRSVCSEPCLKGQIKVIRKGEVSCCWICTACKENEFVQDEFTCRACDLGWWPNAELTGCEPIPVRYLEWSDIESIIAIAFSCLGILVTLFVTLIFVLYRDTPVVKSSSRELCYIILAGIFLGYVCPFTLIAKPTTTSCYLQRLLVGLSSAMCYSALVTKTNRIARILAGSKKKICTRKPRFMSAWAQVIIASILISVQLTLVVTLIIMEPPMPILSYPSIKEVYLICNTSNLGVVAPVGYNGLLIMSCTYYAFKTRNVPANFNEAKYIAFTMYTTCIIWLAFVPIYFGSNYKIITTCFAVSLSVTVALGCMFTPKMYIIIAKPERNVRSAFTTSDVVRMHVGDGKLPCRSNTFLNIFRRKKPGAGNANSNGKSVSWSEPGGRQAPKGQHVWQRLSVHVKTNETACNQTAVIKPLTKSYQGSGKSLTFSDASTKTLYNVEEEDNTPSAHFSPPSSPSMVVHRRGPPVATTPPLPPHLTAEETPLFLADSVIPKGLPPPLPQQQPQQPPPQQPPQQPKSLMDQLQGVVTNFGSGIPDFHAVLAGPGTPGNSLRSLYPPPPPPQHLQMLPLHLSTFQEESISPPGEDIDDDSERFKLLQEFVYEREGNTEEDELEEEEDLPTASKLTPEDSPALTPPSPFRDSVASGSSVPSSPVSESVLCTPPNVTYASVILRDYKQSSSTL
Chain of Glutamate receptor 3 (P19492 whole entry): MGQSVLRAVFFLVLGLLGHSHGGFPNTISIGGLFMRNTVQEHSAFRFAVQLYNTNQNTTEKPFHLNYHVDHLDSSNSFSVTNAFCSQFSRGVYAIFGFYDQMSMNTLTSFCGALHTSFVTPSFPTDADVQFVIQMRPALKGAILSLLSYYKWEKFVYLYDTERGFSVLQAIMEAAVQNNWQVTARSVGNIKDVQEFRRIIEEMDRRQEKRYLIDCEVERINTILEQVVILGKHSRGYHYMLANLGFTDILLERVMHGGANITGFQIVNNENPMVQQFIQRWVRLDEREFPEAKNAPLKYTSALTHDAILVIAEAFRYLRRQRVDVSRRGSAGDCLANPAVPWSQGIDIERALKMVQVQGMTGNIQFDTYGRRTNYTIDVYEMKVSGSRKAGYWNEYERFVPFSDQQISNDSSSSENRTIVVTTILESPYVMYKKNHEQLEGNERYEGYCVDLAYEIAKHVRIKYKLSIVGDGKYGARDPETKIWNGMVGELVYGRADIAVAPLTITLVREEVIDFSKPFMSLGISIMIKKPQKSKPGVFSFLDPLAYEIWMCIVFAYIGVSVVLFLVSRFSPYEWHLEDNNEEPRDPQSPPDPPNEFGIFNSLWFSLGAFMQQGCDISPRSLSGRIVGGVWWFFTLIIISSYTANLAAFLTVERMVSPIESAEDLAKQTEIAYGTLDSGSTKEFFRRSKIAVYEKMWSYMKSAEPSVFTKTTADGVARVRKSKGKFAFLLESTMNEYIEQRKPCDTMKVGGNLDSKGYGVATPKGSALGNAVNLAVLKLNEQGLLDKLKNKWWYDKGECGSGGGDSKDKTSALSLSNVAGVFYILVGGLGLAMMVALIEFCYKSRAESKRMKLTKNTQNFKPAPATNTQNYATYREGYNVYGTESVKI
Chain of Metabotropic glutamate receptor 2 (Q14416 whole entry): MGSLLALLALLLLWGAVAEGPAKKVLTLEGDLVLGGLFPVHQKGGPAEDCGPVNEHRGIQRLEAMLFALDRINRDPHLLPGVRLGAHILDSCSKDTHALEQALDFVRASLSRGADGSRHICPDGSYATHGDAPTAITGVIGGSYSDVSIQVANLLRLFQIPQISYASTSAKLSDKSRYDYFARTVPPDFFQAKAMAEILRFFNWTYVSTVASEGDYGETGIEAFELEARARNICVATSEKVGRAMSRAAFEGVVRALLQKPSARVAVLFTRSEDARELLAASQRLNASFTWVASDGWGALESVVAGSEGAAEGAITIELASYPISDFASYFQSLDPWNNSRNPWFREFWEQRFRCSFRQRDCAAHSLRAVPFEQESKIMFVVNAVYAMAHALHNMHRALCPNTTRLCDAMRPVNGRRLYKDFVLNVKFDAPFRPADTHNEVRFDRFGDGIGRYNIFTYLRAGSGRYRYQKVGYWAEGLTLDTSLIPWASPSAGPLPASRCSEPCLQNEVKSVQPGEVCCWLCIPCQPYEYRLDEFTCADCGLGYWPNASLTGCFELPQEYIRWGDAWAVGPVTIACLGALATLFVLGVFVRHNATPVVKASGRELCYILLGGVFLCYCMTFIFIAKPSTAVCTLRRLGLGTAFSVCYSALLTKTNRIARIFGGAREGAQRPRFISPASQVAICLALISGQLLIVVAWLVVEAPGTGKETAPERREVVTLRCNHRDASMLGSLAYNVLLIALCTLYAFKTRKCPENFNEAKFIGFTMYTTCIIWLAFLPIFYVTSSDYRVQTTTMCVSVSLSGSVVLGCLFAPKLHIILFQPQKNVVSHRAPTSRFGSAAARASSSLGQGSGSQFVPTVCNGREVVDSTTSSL
Chain of Glutamate receptor ionotropic, kainate 1 (P22756 whole entry): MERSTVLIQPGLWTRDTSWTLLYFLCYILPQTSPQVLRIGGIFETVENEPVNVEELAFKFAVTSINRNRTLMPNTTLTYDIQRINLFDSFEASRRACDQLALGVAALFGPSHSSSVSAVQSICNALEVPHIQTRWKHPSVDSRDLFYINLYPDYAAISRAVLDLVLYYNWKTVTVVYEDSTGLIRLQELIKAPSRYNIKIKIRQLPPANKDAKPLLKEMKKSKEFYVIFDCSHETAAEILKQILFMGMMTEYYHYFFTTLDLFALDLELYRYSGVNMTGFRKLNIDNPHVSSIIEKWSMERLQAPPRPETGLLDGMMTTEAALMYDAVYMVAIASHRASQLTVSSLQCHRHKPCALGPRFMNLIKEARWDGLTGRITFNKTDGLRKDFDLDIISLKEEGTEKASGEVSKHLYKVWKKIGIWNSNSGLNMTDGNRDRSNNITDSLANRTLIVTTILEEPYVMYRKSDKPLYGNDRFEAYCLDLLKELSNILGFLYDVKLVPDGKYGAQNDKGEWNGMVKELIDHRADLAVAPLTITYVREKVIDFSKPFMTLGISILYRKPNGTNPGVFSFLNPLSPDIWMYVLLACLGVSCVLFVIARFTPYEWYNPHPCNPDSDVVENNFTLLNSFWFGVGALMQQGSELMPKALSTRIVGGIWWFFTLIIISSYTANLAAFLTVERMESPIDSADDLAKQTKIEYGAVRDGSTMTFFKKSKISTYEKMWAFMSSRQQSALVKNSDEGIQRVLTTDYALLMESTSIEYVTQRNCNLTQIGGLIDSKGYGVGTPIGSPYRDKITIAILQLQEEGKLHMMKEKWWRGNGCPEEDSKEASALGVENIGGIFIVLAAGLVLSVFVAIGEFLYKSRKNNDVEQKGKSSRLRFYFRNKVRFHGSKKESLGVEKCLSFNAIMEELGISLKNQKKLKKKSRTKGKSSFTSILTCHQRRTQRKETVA
Chain of Metabotropic glutamate receptor 4 (P31423 whole entry): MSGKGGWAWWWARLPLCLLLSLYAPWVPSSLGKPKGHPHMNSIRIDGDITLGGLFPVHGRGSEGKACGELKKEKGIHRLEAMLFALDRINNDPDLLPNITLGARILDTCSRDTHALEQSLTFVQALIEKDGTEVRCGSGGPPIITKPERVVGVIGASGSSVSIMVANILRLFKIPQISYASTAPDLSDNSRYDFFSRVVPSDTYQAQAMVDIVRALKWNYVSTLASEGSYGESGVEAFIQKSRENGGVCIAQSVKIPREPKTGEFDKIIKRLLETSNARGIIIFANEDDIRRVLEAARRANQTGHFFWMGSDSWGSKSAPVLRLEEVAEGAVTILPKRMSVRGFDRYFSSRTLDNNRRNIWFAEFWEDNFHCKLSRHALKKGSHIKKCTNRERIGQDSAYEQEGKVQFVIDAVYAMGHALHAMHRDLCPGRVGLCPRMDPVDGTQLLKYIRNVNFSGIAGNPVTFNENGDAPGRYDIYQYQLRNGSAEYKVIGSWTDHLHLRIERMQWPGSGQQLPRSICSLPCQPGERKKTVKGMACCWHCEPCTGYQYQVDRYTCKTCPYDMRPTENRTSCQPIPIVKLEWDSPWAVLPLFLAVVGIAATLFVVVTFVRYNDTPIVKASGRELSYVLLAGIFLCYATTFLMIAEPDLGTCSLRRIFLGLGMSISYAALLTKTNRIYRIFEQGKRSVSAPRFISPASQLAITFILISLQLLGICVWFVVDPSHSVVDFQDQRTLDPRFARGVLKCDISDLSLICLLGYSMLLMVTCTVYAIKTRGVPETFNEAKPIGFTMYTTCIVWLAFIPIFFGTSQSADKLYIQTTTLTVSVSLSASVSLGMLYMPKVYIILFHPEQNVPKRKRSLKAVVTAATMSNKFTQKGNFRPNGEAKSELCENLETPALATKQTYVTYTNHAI

C[C@@](N)(C(=O)O)c1ccc(C(=O)O)cc1 (racemic)
> 10 µM: all assays above

N[C@H](C(=O)O)c1ccc(O)c(C(=O)O)c1 [3C4HPG]
> 10 µM: all assays above

N[C@H](C(=O)O)c1ccc(C(=O)O)cc1 [4-((S)-Amino-carboxy-methyl)-benzoic acid]
> 10 µM: all assays above

NC(C(=O)O)c1ccc(C(=O)O)cc1 (centres undefined) [4-(Amino-carboxy-methyl)-benzoic acid]
> 10 µM: [2] | [3] | [5]

N[C@@H](C(=O)O)c1cccc(O)c1 [(R)-3-Hydroxyphenylglyci]
> 10 µM: all assays above

N[C@H](C(=O)O)c1cccc(O)c1 [(S)-3-Hydroxyphenylglycine]
> 10 µM: all assays above

N[C@@H](C(=O)O)c1ccc(C(=O)O)cc1 [(S)-4CPG]
> 10 µM: all assays above

N[C@@H](C(=O)O)c1ccc(O)c(C(=O)O)c1 [CB7394016]
not listed: [4]
> 10 µM: all other assays above
